A short description of series [1]: Cytotoxicity in HeLa cells (ATPlite, CC50) used for selectivity index. The following applies: human.
Procedure: The wells contain 0.05% DMSO per volume. Cells were incubated at 37° C. in a 5% CO2 atmosphere. […] In parallel, compounds were incubated for three days in a set of white 384-well microtiter plates (Corning) and the cytotoxicity of compounds in HeLa cells was determined by measuring the ATP content of the cells using the ATPlite kit (Perkin Elmer, Zaventem, Belgium) according to the manufacturer's instructions. The CC50 was defined as the 50% concentration for cytotoxicity.
The next series concerns rgRSV224 virus. As to the kind of experiment: Antiviral activity: rgRSV224 (GFP) replication in HeLa cells. Conditions: human respiratory syncytial virus, 72 h, read-out: RSV HELA pEC50 (converted).

From patent publication US9738652B2, “Spiro urea compounds as RSV antiviral compounds” (priority 2014, dated 2017) come the findings set out here.

Structures are written as SMILES. Some results are limits rather than exact numbers.

Broadly, the melting point is the temperature of the solid-liquid transition.

Procedure for rgRSV224 virus: Black 384-well clear-bottom microtiter plates (Corning, Amsterdam, The Netherlands) were filled via acoustic drop ejection using the echo liquid handler (Labcyte, Sunnyvale, Calif.). 200 nL of compound stock solutions (100% DMSO) were transferred to the assay plates. 9 serial 4-fold dilutions of compound were made, creating per quadrant the same compound concentration. The assay was initiated by adding 10 μL of culture medium to each well (RPMI medium without phenol red, 10% FBS-heat inactivated, 0.04% gentamycin (50 mg/mL). All addition steps are done by using a multidrop dispenser (Thermo Scientific, Erembodegem, Belgium). Next, rgRSV224 virus (MOI=1) diluted in culture medium was added to the plates. rgRSV224 virus is an engineered virus that includes an additional GFP gene (Hallak L K, Spillmann D, Collins P L, Peeples M E. Glycosaminoglycan sulfation requirements for respiratory syncytial virus infection; Journal of virology (2000), 74(22), 10508-13) and was in-licensed from the NIH (Bethesda, Md., USA). Finally, 20 μL of a HeLa cell suspension (3,000 cells/well) were plated. Medium, virus- and mock-infected controls were included in each test. The wells contain 0.05% DMSO per volume. Cells were incubated at 37° C. in a 5% CO2 atmosphere. Three days post-virus exposure, viral replication was quantified by measuring GFP expression in the cells by an in house developed MSM laser microscope (Tibotec, Beerse, Belgium). The EC50 was defined as the 50% inhibitory concentration for GFP expression. In parallel, compounds were incubated for three days in a set of white 384-well microtiter plates (Corning) and the cytotoxicity of compounds in HeLa cells was determined by measuring the ATP content of the cells using the ATPlite kit (Perkin Elmer, Zaventem, Belgium) according to the manufacturer's instructions. The CC50 was defined as the 50% concentration for cytotoxicity.

On to `CNC(=O)N1CCC2(CC1)C(=O)N(Cc1nc3cc(Cl)ccc3n1CCCC#N)c1cnccc12` [Co. No. 26, 1′-[[5-chloro-1-(3-cyanopropyl)benzimidazol-2-yl]methyl]-N-methyl-2′-oxo-spiro[piperidine-4,3′-pyrrolo[2,3-c]pyridine]-1-carboxamide], for which the melting point worked out at 99.81 °C. Moreover, the selectivity ratio at 3 days in series [1] is greater than 1.82e+06. Also, in the series with rgRSV224 virus, the EC50 was 0.055 nM.
On to `O=C(NC1CC(O)C1)N1CC2(C1)C(=O)N(Cc1nc3nc(Cl)ccc3n1CCCC(F)(F)F)c1ccccc12` (centres unmarked) [Co. No. 24, 1′[[5-chloro-1-(4,4,4-trifluorobutyl)imidazo[4,5-b]pyridin-2-yl]methyl]-N-(3-hydroxycyclobutyl)-2′-oxo-spiro[azetidine-3,3′-indoline]-1-carboxamide], for which the selectivity ratio at 3 days in series [1] was greater than 75400. Besides, the EC50 with rgRSV224 virus is 1.32 nM.
`CN1CCC(NC(=O)N2CC3(C2)C(=O)N(Cc2cc4cc(Cl)ccc4n2CCCC#N)c2ccccc23)CC1` [Co. No. 5, 1′-[[5-chloro-1-(3-cyanopropyl)indol-2-yl]methyl]-N-(1-methyl-4-piperidyl)-2′-oxo-spiro[azetidine-3,3′-indoline]-1-carboxamide]: the selectivity ratio at 3 days in series [1] is 10000. Further, in the series with rgRSV224 virus, the EC50 is 3.16 nM.
The like results for `CC(C)NC(=O)N1CC2(C1)C(=O)N(Cc1cc3cc(Cl)ccc3n1CCCS(C)(=O)=O)c1ccccc12` [Co. No. 1, 1′-[[5-chloro-1-(3-methylsulfonylpropyl)indol-2-yl]methyl]-N-isopropyl-2′-oxo-spiro[azetidine-3,3′-indoline]-1-carboxamide] were, in that order, 357000 and 0.0891 nM.
Taken in the same sequence, the figures for `CN(C)CCNC(=O)N1CC2(C1)C(=O)N(Cc1cc3cc(Cl)ccc3n1CCCS(C)(=O)=O)c1ccccc12` [Co. No. 17, 1′-[[5-chloro-1-(3-methylsulfonylpropyl)indol-2-yl]methyl]-N-[2-(dimethylamino)ethyl]-2′-oxo-spiro[azetidine-3,3′-indoline]-1-carboxamide] were 39300 and 1.26 nM.
As for `N#CCCCn1c(CN2C(=O)C3(CN(C(=O)N[C@H]4C[C@H](O)C4)C3)c3ccccc32)cc2cc(Cl)ccc21` [Co. No. 9, 1′-[[5-chloro-1-(3-cyanopropyl)indol-2-yl]methyl]-N-(trans-3-hydroxycyclobutyl)-2′-oxo-spiro[azetidine-3,3′-indoline]-1-carboxamide], in series [1], the selectivity ratio at 3 days is greater than 254000. Further, the EC50 with rgRSV224 virus is less than 0.153 nM.
The like results for `CC(C)NC(=O)N1CCC2(CC1)C(=O)N(Cc1cc3cc(Cl)ccc3n1CCCC#N)c1cnccc12` [Co. No. 28, 1′-[[5-chloro-1-(3-cyanopropyl)indol-2-yl]methyl]-N-isopropyl-2′-oxo-spiro[piperidine-4,3′-pyrrolo[2,3-c]pyridine]-1-carboxamide] were, in that order, 25400 and 2.14 nM.
In the case of `N#CCCCn1c(CN2C(=O)C3(CN(C(=O)NC4CCNCC4)C3)c3ccccc32)cc2cc(Cl)ccc21` [Co. No. 3, 1′-[[5-chloro-1-(3-cyanopropyl)indol-2-yl]methyl]-2′-oxo-N-(4-piperidyl)spiro[azetidine-3,3′-indoline]-1-carboxamide], the selectivity ratio at 3 days in series [1] amounted to 158000. Besides, in the series on rgRSV224 virus, the EC50 was 0.631 nM.
As for `N#CCCCn1c(CN2C(=O)C3(CN(C(=O)NC4CC(O)C4)C3)c3ccccc32)cc2cc(Cl)ccc21` (centres unmarked) [Co. No. 7, 1′-[[5-chloro-1-(3-cyanopropyl)indol-2-yl]methyl]-N-(3-hydroxycyclobutyl)-2′-oxo-spiro[azetidine-3,3′-indoline]-1-carboxamide], in series [1], the selectivity ratio at 3 days was 103000. For the same molecule, the EC50 in the series on rgRSV224 virus was 0.407 nM.
For the molecule `CC(C)NC(=O)N1CCC2(CC1)C(=O)N(Cc1nc3cc(Cl)ccc3n1CCCC#N)c1cnccc12` [Co. No. 29, 1′-[[5-chloro-1-(3-cyanopropyl)benzimidazol-2-yl]methyl]-N-isopropyl-2′-oxo-spiro[piperidine-4,3′-pyrrolo[2,3-c]pyridine]-1-carboxamide], the selectivity ratio at 3 days in series [1] is greater than 4.11e+06. The EC50 with rgRSV224 virus is 0.0245 nM.
As to `CC(C)NC(=O)N1CC2(C1)C(=O)N(Cc1nc3cc(Cl)ccc3n1CCCS(C)(=O)=O)c1ccccc12` [Co. No. 18, 1′-[[5-chloro-1-(3-methylsulfonylpropyl)benzimidazol-2-yl]methyl]-N-isopropyl-2′-oxo-spiro[azetidine-3,3′-indoline]-1-carboxamide], the selectivity ratio at 3 days in series [1] is greater than 4.93e+06. Further, the EC50 in the series on rgRSV224 virus is 0.0204 nM.
